According to patent publication EP1963277B1, “FLUORINATED COMPOUNDS” (priority 2005, dated 2007):
Where two headings read alike, the source gives them in different places.

Key:
Format in all cases: in vivo
[1] = tested on: FCA-treated rats; experiment: Freund's Complete Adjuvant (FCA) model, paw edema/volume (plethysmometer); settings: p.o.
Procedure: (§1) Administration of FCA to the hind paw of an animal induces the formation of a localized edema and has been widely used as a model of chronic inflammatory pain. 100 µl of FCA is injected subcutaneously into the dorsal aspect of the left hind paw of the rats. The edema appears within 2 h reaches a peak by 6h and lasts for about 7 days. The effects of compounds on mechanical allodynia and paw volume were studied 2 days after FCA administration.
The edema/volume of the paw is a measure of inflammation induced by FCA. This was measured by using a plethysmometer (Ugo Basile, Italy). In this, the paw of the rat is immersed in a reservoir of water and the volume of water displaced indicates the paw volume.
After the initial basal (control) readings were taken, the test compound (60 mg/kg)/vehicle was administered orally in a volume of 10 ml/kg.

[2] = tested on: Male, CD-1 mice; experiment: Maximal Electroshock Assay (mouse); settings: for ED50: oral pretreatment, range in parentheses
Procedure: Male, CD-1 mice (20-30g body weight) were orally pretreated with test compound or vehicle control, and either at 1h or 4h post dose a maximal electroshock (45mA amplitude, 0.2s duration, 60Hz) was applied by corneal electrodes. Protection was defined by the absence of a tonic extensor seizure in the animal within 20s of application of the electrical stimulus, which typically occurred in all vehicle pretreated animals. Animals received only one electroshock and so separate animals were used for the 1h and 4h timepoints. All drugs were administered in multiple doses.

[3] = tested on: SNI rats; experiment: Spared Nerve Injury (SNI) model, cold allodynia (acetone test); settings: for duration (s) of nociceptive response, Post Admin 30 min: *** P<0.001 vs Pre-Admin.; for duration (s) of nociceptive response, Pre-Admin. 0 min: baseline before administration
Procedure: (§2) The compounds were tested for their efficacy in reducing mechanical allodynia and cold allodynia in the spared nerve injury (SNI) model of chronic neuropathic pain. In this model, the left sciatic nerve of the rat is exposed under anesthesia. Two of the branches of the sciatic nerve viz. the common peroneal and tibial nerve are ligated and sectioned. The third branch (sural nerve) is left intact. The animals were allowed a post-operative recovery period of 7 days before they were subjected to any test.
Cold allodynia was assessed by using the acetone test. In this model, 25 µl of acetone is sprayed on to the plantar surface of the hind paw. Evaporation of acetone causes cooling of the skin. The cold stimulus sets up nociceptive responses from the injured paw as evidenced by paw lifting, paw licking and grooming. The duration of the nociceptive responses is noted.
Testing of compounds was done after 21 days post-operatively. After initial basal readings were taken, the test compound or the vehicle was administered (10 ml/kg) either intraperitoneally (30 mg/kg) or orally (60 mg/kg). The readings were taken 30 min after the administration.

[4] = tested on: rats; experiment: Persistent Inflammatory Pain (Formalin Model); settings: Rattus norvegicus, formalin test, 30 min pretreatment; for inhibition at 30 mg/kg: ip, i.p.; for inhibition at 60 mg/kg: po, p.o.
Procedure: The formalin test is a chemically-induced tonic pain model in which injection of formalin into a hind paw elicits a biphasic nociceptive behavior. The second phase of formalin response is predominantly due to a central sensitization phenomenon. Most clinically used drugs against neuropathic pain arc active on this second phase of formalin response. Formalin test is accepted as a valid model of persistent clinical pain.
The test was done by pretreating the rats with the test compound and 30 min later (pretreatment time), 50 µl of 2.5% formalin was injected into the right hind paw of the animal. The number of paw licking and flinching episodes were scored for 60 min post-formalin injection.
The compounds were administered either intraperitoneally (30 mg/kg) or orally (60 mg/kg).

[5] = tested on: Male, Sprague-Dawley rats; experiment: Maximal Electroshock Assay (rat); settings: for ED50: oral pretreatment, range in parentheses
Procedure: Male, Sprague-Dawley rats (approx. 100g body weight) were prescreened for tonic seizure susceptibility prior to drug testing. […] Protection was defined by the absence of a tonic extensor seizure in the animal within 20s of application of the electrical stimulus, which typically occurred in all vehicle pretreated animals. Animals received only one electroshock on the drug test day and so separate animals were used for the 0.5h and 4h timepoints. All drugs were administered in multiple doses.

[6] = tested on: FCA-treated rats; experiment: Freund's Complete Adjuvant (FCA) model, mechanical allodynia (modified Randall-Selitto method); settings: p.o.
Procedure: as §1
The effect of the compounds in alleviating mechanical allodynia was assessed in the FCA-treated rats using the modified Randall-Selitto method (Analgesy-Meter, Ugo Basile, Italy). The animal's paw is placed on a small plinth under a cone-shaped pusher. Increasing force is applied to the paw by depressing a pedal until vocalization or withdrawal of the paw occurs. The minimum force required to elicit this vocalization/withdrawal is the paw pressure threshold. The cut-off was set at 150 g.
After the initial basal (control) readings were taken, the test compound (60 mg/kg)/vehicle was administered orally in a volume of 10 ml/kg. The paw pressure thresholds were measured 30, 60 and 180 min post administration. […] Some of the compounds were effective even at 60 and 180 min post administration.

[7] = tested on: SNI rats; experiment: Spared Nerve Injury (SNI) model, mechanical allodynia (Dynamic Plantar Aesthesiometer); settings: for withdrawal threshold, Post Admin 30 min / withdrawal threshold, Post Admin 60 min / withdrawal threshold, Post Admin 180 min: *** P<0.001 vs Pre-Admin.; for withdrawal threshold, Pre-Admin. 0 min: baseline before administration
Procedure: as §2
The presence of mechanical allodynia was assessed using the Dynamic Plantar Aesthesiometer (Ugo Basile, Italy) which is a modified version of the Von Frey Hair test. In this, a test filament is positioned below the animal's hind paw and the unit is activated which causes the filament to move up and touch the plantar surface of the hind paw. Increasing force is applied to the paw via the filament. […] The cut-off force is set at 50 g. The tests were done on both the non-injured (control) and the injured (SNI) paw.
Testing of compounds was done after 21 days post-operatively. After initial basal readings were taken, the test compound or the vehicle was administered (10 ml/kg) either intraperitoneally (30 mg/kg) or orally (60 mg/kg). The readings were taken again 30, 60 and 180 min after the compound/vehicle administration.

[8] = group later given 60 mg/kg, baseline before administration
[9] = group later given 30 mg/kg, i.p.
[10] = group later given 60 mg/kg, p.o.
[11] = 60 mg/kg, ** P<0.01, *** P<0.001 vs Pre-Admin.

CC(=O)N[C@H](COC(F)F)C(=O)NCc1ccc(Cl)cc1 [Compound 20]
paw volume (ml), Post Admin 30 min ([1]; 60 mg/kg): 2.3 ± 0.1 mL
paw volume (ml), Post Admin 60 min ([1]; 60 mg/kg): 2.3 ± 0.1 mL
paw volume (ml), Pre-Admin. 0 min [1, 8]: 2.3 ± 0.1 mL
duration of action ([2]; mouse MES, judged by similar potency at 1h and 4h pretreatment timepoints): longer than Lacosamide
Ratio ED50 4h vs. 1h ([2]; mouse, oral): 2.1
shift in ED50 for 1 vs. 4h ([2]; mouse, oral): 1 to 3.5 fold
ED50 ([2]; mouse, electroshock 1h post dose, blockade of tonic extensor seizure, read-out: MES oral ED50 1h): 8.7 mg/kg
ED50 ([2]; read-out: MES oral ED50 4h, mouse, electroshock 4h post dose): 17.9 mg/kg
duration (s) of nociceptive response, Post Admin 30 min ([3]; 30 mg/kg, i.p.): 3.4 ± 2.1*** s
duration (s) of nociceptive response, Post Admin 30 min ([3]; 60 mg/kg, p.o.): 16.6 ± 6.3*** s
duration (s) of nociceptive response, Pre-Admin. 0 min [3, 9]: 45.6 ± 6.9 s
duration (s) of nociceptive response, Pre-Admin. 0 min [3, 10]: 33.3 ± 4.3 s
inhibition at 30 mg/kg ([4]; *** P<0.001, read-out: %Inhibition Phase I): 75.3 ± 9.3%
inhibition at 30 mg/kg ([4]; *** P<0.001, read-out: %Inhibition Phase II): 82.3 ± 9.7%
inhibition at 60 mg/kg ([4]; ** P<0.01, *** P<0.001, read-out: %Inhibition Phase II): 57.6 ± 7%
inhibition at 60 mg/kg ([4]; read-out: %Inhibition Phase I): 9.6 ± 8.1%
duration of action ([5]; rat MES, judged by similar potency at 0.5h and 4h pretreatment timepoints): longer than Lacosamide
Ratio ED50 4h vs. 0.5h ([5]; rat, oral): 1.2
shift in ED50 for 0.5 vs. 4h ([5]; rat, oral): 1 to 1.4 fold
ED50 ([5]; read-out: MES oral ED50 0.5h, rat, electroshock 0.5h post dose): 1.7 mg/kg
ED50 ([5]; read-out: MES oral ED50 4h, rat, electroshock 4h post dose): 2 mg/kg
paw withdrawal threshold (g), Post Admin 30 min [6, 11]: 67.1 ± 9.9*** g
paw withdrawal threshold (g), Post Admin 60 min [6, 11]: 60.4 ± 5.8*** g
paw withdrawal threshold (g), Post Admin 180 min [6, 11]: 64.2 ± 5.6*** g
paw withdrawal threshold (g), Pre-Admin. 0 min [6, 8]: 23.3 ± 2.1 g
withdrawal threshold, Post Admin 30 min ([7]; 30 mg/kg, i.p.): 24.9 ± 4.4*** g
withdrawal threshold, Post Admin 60 min ([7]; 30 mg/kg, i.p.): 23.3 ± 3.2*** g
withdrawal threshold, Post Admin 180 min ([7]; 30 mg/kg, i.p.): 26.3 ± 2.5*** g
withdrawal threshold, Post Admin 30 min ([7]; 60 mg/kg, p.o.): 19.3 ± 1.8*** g
withdrawal threshold, Post Admin 60 min ([7]; 60 mg/kg, p.o.): 20.3 ± 1.6*** g
withdrawal threshold, Post Admin 180 min ([7]; 60 mg/kg, p.o.): 14.7 ± 0.9*** g
withdrawal threshold, Pre-Admin. 0 min [7, 9]: 12.4 ± 1.3 g
withdrawal threshold, Pre-Admin. 0 min [7, 10]: 7.5 ± 0.5 g
